These results are taken from patent US12325701B2, “YKL-40 inhibitors and their therapeutic” (Molecure S.A., priority 2022, dated 2025).

In the test the target is YKL-40 (YKL-40-histag, chitin binding site) (Homo sapiens (Human), UniProt P36222). As to the kind of experiment: YKL-40:4 assay, competitive chitin binding site AlphaScreen.
Setting [1] is: competition with biotinylated compound 4, 20 nM, YKL-40-histag 2.5 nM, read-out: YKL-40:4, IC50/Kd (IC50 range).

Where a name gives a salt, the structure may show the parent alone. Read-outs that look alike come from different tables or passages of the source.

YKL-40 (YKL-40-histag, chitin binding site), sequence (P36222 22-383): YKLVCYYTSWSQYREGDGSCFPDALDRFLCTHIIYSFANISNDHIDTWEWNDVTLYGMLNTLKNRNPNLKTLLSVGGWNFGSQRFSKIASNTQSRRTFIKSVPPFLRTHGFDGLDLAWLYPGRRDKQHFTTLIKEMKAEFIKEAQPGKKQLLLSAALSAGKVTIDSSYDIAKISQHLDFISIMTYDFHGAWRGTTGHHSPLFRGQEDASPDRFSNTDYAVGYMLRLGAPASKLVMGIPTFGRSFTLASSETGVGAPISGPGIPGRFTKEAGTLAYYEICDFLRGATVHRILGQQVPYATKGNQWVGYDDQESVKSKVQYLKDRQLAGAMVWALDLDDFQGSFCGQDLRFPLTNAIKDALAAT

On to `CC(C)C[C@H]1CN(C2CCN(c3ccccn3)CC2)[C@@H](Cc2ccc(Cl)cc2)CN1C(=O)OC(C)(C)C` [Compound 2e, tert-butyl (2S,5S)-5-(4-chlorobenzyl)-2-isobutyl-4-(1-(pyridin-2-yl)piperidin-4-yl)piperazine-1-carboxylate], for which the IC50 under setting [1] was over 10 µM.
With `CC(C)C[C@H]1CN(C2CCN(c3ccccn3)CC2)[C@@H](Cc2ccc(Cl)cc2)CN1CC(=O)OC(C)(C)C` [Compound 2g, tert-butyl 2-((2S,5S)-5-(4-chlorobenzyl)-2-isobutyl-4-(1-(pyridin-2-yl)piperidin-4-yl)piperazin-1-yl)acetate], the IC50 was over 10 µM.
Still for that read-out and setting: the same measure for `C[C@H]1CN(C2CCN(C(=O)OC(C)(C)C)CC2)[C@@H](Cc2ccc(Cl)cc2)CO1` [Compound 8d, tert-butyl 4-((2S,5S)-5-(4-chlorobenzyl)-2-methylmorpholino)piperidine-1-carboxylate]: over 10 µM.
`C[C@H]1CN(C2C[C@H]3CC[C@@H](C2)N3c2cc(Cl)ccn2)[C@@H](Cc2ccc(Cl)cc2)CO1` (stereo partly drawn) [Compound 58, (2S,5S)-5-(4-chlorobenzyl)-4-((1R,5S)-8-(4-chloropyridin-2-yl)-8-azabicyclo[3.2.1]octan-3-yl)-2-methylmorpholine 2,2,2-trifluoroacetate]: the IC50 was over 10 µM.
Consider `C[C@H]1CN(C2CCN(c3ccnc(Cl)n3)CC2)[C@@H](Cc2ccc(Cl)cc2)CO1` [Compound 66, (2S,5S)-5-(4-chlorobenzyl)-4-(1-(2-chloropyrimidin-4-yl)piperidin-4-yl)-2-methylmorpholine], for which the IC50 under setting [1] is over 10 µM.
In turn, `C[C@H]1CN(C2CCN(c3ccnc(N)n3)CC2)[C@@H](Cc2ccc(Cl)cc2)CO1` [Compound 67, 4-(4-((2S,5S)-5-(4-chlorobenzyl)-2-methylmorpholino)piperidin-1-yl)pyrimidin-2-amine 2,2,2-trifluoroacetate] had an IC50 of over 10 µM.
Still for that read-out and setting: the same measure for `Clc1ccc(C[C@H]2COc3ccccc3CN2C2CCN(c3ccccn3)CC2)cc1` [Compound 81, (S)-3-(4-chlorobenzyl)-4-(1-(pyridin-2-yl)piperidin-4-yl)-2,3,4,5-tetrahydrobenzof[1,4]oxazepine hydrochloride]: over 10 µM; for `CN1C[C@H](Cc2ccc(Cl)cc2)N(C2CCN(c3cc(Cl)ccn3)CC2)C[C@@H]1COc1ccc2ccccc2c1` [Compound 84, (2S,5R)-2-(4-chlorobenzyl)-1-(1-(4-chloropyridin-2-yl)piperidin-4-yl)-4-methyl-5-((naphthalen-2-yloxy)methyl)piperazine 2,2,2-trifluoroacetate]: over 10 µM.
The same measure, in the same setting: the same measure for `C[C@H]1CN(C2CCN(c3ncccc3C(N)=O)CC2)[C@@H](Cc2ccc(Cl)cc2)CO1` [Compound 114, 2-(4-((2S,5S)-5-(4-chlorobenzyl)-2-methylmorpholino)piperidin-1-yl)nicotinamide 2,2,2-trifluoroacetate]: over 10 µM; for `C[C@H]1CN(C2CCN(c3cc(Cl)ccc3C#N)CC2)[C@@H](Cc2ccc(Cl)cc2)CO1` [Compound 115, 4-chloro-2-(4-((2S,5S)-5-(4-chlorobenzyl)-2-methylmorpholino)piperidin-1-yl)benzonitrile 2,2,2-trifluoroacetate]: over 10 µM; for `C[C@H]1CN(C2CCN(c3nccc4ccccc34)CC2)[C@@H](Cc2ccc(Cl)cc2)CO1` [Compound 116, (2S,5S)-5-(4-chlorobenzyl)-4-(1-(isoquinolin-1-yl)piperidin-4-yl)-2-methylmorpholine 2,2,2-trifluoroacetate]: over 10 µM.
On the same count and under the same terms, the same measure for `COC(=O)c1cccnc1N1CCC(N2C[C@H](C)OC[C@@H]2Cc2ccc(Cl)cc2)CC1` [Compound 117, methyl 2-(4-((2S,5S)-5-(4-chlorobenzyl)-2-methylmorpholino)piperidin-1-yl)nicotinate 2,2,2-trifluoroacetate]: over 10 µM; for `C[C@H]1CN(C2CCN(c3c(F)cccc3C#N)CC2)[C@@H](Cc2ccc(Cl)cc2)CO1` [Compound 118, 2-(4-((2S,5S)-5-(4-chlorobenzyl)-2-methylmorpholino)piperidin-1-yl)-3-fluorobenzonitrile 2,2,2-trifluoroacetate]: over 10 µM.
As for `C[C@H]1CN(C2CCN(c3ccccc3C#N)CC2)[C@@H](Cc2ccc(Cl)cc2)CO1` [Compound 119, 2-(4-((2S,5S)-5-(4-chlorobenzyl)-2-methylmorpholino)piperidin-1-yl)benzonitrile 2,2,2-trifluoroacetate], the IC50 was over 10 µM.
The same measure, in the same setting: the same measure for `C[C@H]1CN(C2CCN(c3ncccc3CO)CC2)[C@@H](Cc2ccc(Cl)cc2)CO1` [Compound 120, (2-(4-((2S,5S)-5-(4-chlorobenzyl)-2-methylmorpholino)piperidin-1-yl)pyridin-3-yl)methanol 2,2,2-trifluoroacetate]: over 10 µM.
As for `COC(=O)c1ccnc(F)c1N1CCC(N2C[C@H](C)OC[C@@H]2Cc2ccc(Cl)cc2)CC1` [Compound 121, methyl 3-(4-((2S,5S)-5-(4-chlorobenzyl)-2-methylmorpholino)piperidin-1-yl)-2-fluoroisonicotinate], the IC50 under setting [1] was over 10 µM.
On the same count and under the same terms, the same measure for `COC(=O)c1ccnc(N2CCC(N3C[C@H](C)OC[C@@H]3Cc3ccc(Cl)cc3)CC2)c1F` [Compound 122, methyl 2-(4-((2S,5S)-5-(4-chlorobenzyl)-2-methylmorpholino)piperidin-1-yl)-3-fluoroisonicotinate]: over 10 µM.
`C[C@H]1CN(C2CCN(c3c(F)cccc3F)CC2)[C@@H](Cc2ccc(Cl)cc2)CO1` [Compound 123, (2S,5S)-5-(4-chlorobenzyl)-4-(1-(2,6-difluorophenyl)piperidin-4-yl)-2-methylmorpholine 2,2,2-trifluoroacetate] showed an IC50 of over 10 µM.
`COC(=O)c1ccnc(N2CCC(N3C[C@H](C)OC[C@@H]3Cc3ccc(Cl)cc3)CC2)c1` [Compound 124, methyl 2-(4-((2S,5S)-5-(4-chlorobenzyl)-2-methylmorpholino)piperidin-1-yl)isonicotinate]: under setting [1], the IC50 is over 10 µM.
The compound `C[C@H]1CN(C2CCN(c3cc(C(=O)O)ccn3)CC2)[C@@H](Cc2ccc(Cl)cc2)CO1` [Compound 125, 2-(4-((2S,5S)-5-(4-chlorobenzyl)-2-methylmorpholino)piperidin-1-yl)isonicotinic acid 2,2,2-trifluoroacetate] registered an IC50 of over 10 µM.
As to `C[C@H]1CN(C2CCN(c3ccccc3F)CC2)[C@@H](Cc2ccc(Cl)cc2)CO1` [Compound 126, (2S,5S)-5-(4-chlorobenzyl)-4-(1-(2-fluorophenyl)piperidin-4-yl)-2-methylmorpholine 2,2,2-trifluoroacetate], the IC50 was over 10 µM.
On the same count and under the same terms, the same measure for `C[C@H]1CN(C2CCN(c3cccc(F)c3)CC2)[C@@H](Cc2ccc(Cl)cc2)CO1` [Compound 127, (2S,5S)-5-(4-chlorobenzyl)-4-(1-(3-fluorophenyl)piperidin-4-yl)-2-methylmorpholine 2,2,2-trifluoroacetate]: over 10 µM.
Same read-out and setting: the same measure for `C[C@H]1CN(C2CCN(c3nccc(C(=O)O)c3F)CC2)[C@@H](Cc2ccc(Cl)cc2)CO1` [Compound 128, 2-(4-((2S,5S)-5-(4-chlorobenzyl)-2-methylmorpholino)piperidin-1-yl)-3-fluoroisonicotinic acid 2,2,2-trifluoroacetate]: over 10 µM.
